# Experimental data as given in patent US20230348415A1, “BISPECIFIC ANTAGONISTS OF RETINOL-BINDING PROTEIN 4 THAT STABILIZE TRANSTHYRETIN TETRAMERS, THEIR PREPARATION, AND USE IN THE TREATMENT OF COMMON AGE-RELATED COMORBIDITIES” (The Trustees of Columbia University in the City of New York, priority 2020, published 2023).
# Key:
# [1] = Plasma protein binding, human plasma; type: in vitro ADME; conditions: pH 7.4, read-out: % PPB, H (converted)
# Description: (§1) Plasma protein binding (PPB) for compounds determination for compound (±)-44 in PBS (pH 7.4) was conducted by Eurofins using equilibrium dialysis of plasma with HPLC-UV/Vis detection.
# (§2) The peak areas of the test compound in the buffer and test samples were used to calculate percent binding and recovery according to the following formulas:
# (§3) • Areap=Peak area of analyte in protein matrix • Areab=Peak area of analyte in buffer • Areac=Peak area of analyte in control sample
# RBP4 = RBP4 (Homo sapiens (Human), UniProt P02753); assay: RBP4 SPA binding assay (displacement of 3H-retinol); conditions: read-out: RBP4 SPA IC50
# TTR = TTR (Homo sapiens (Human), UniProt P02766); assay: biochemical; type: binding; conditions: FITC-coupled TTR FP probe; read-out: TTR FP IC50
# Description: Compound binding to TTR was assessed in the fluorescence polarization assay. […] Each well contained 200 nM TTR and 100 nM FITC-diclofenac in the FP buffer (10 mM Tris-HCl pH 7.5, 150 mM NaCl, 0.01% CHAPS, 0.01% Prionex) along with test compounds. Nonspecific binding was determined in the presence of 500 μM unlabeled diclofenac (Sigma-Aldrich). Reactions with test compounds were incubated overnight at 4° C. and FP was measured on SpectramaxM5e plate reader (Molecular Devices).
# [2] = Plasma protein binding, rat plasma; type: in vitro ADME; conditions: Sprague Dawley, pH 7.4, read-out: % PPB, R (converted)
# Description: as §1, §2, §3
# hERG = hERG (Homo sapiens (Human), UniProt Q12809); assay: CiPA hERG QPatch Assay; type: cell-based; conditions: five-point concentration-response, n = 2
# Sequence of hERG (Q12809 whole entry): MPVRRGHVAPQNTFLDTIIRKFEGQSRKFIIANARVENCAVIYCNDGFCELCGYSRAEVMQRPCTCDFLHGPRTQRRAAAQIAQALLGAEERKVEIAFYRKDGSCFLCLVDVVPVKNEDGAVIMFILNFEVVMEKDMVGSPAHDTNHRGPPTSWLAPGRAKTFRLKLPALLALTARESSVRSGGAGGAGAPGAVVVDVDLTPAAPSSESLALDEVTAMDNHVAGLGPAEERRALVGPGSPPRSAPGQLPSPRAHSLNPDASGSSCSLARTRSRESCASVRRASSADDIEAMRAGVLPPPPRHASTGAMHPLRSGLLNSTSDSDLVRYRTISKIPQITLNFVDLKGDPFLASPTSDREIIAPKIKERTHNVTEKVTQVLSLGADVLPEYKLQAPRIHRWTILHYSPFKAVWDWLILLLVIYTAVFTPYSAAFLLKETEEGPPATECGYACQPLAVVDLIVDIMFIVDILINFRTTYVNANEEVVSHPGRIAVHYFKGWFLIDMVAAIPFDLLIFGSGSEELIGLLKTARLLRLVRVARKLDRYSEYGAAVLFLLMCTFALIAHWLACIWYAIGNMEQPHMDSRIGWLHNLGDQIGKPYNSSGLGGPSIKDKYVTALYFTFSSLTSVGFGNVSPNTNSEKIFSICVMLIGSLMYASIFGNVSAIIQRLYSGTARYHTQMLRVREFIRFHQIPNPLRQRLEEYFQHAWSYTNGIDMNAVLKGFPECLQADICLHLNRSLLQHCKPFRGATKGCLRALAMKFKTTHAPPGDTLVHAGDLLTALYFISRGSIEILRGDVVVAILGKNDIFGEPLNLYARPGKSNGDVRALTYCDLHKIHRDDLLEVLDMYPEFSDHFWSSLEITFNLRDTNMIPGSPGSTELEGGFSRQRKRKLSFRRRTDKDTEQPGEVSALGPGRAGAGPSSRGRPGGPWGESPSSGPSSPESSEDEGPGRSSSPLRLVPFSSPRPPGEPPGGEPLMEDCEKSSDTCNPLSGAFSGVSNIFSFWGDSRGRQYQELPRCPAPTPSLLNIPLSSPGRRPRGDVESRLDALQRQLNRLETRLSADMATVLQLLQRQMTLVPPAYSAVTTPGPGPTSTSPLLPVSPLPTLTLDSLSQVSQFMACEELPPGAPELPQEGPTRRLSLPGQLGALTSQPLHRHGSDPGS
# Kinetic solubility assay = type: physicochemical; conditions: PBS (pH 7.4)
# Description: Kinetic aqueous solubility determination for compound (±)-44 in PBS (pH 7.4) was conducted by Eurofins using UV detection (230 nm). […] In addition, chromatographic purity (%) was defined as the peak area of the principal peak relative to the total integrated peak area in the HPLC chromatogram of the calibration standard. A chromatogram of the calibration standard of each test compound, along with a UV/VIS spectrum with labeled absorbance maxima, was generated.
# PPARγ = PPARγ (Homo sapiens (Human), UniProt P37231); assay: PPARγ agonist activity
# Sequence of PPARγ (P37231 whole entry, species assumed): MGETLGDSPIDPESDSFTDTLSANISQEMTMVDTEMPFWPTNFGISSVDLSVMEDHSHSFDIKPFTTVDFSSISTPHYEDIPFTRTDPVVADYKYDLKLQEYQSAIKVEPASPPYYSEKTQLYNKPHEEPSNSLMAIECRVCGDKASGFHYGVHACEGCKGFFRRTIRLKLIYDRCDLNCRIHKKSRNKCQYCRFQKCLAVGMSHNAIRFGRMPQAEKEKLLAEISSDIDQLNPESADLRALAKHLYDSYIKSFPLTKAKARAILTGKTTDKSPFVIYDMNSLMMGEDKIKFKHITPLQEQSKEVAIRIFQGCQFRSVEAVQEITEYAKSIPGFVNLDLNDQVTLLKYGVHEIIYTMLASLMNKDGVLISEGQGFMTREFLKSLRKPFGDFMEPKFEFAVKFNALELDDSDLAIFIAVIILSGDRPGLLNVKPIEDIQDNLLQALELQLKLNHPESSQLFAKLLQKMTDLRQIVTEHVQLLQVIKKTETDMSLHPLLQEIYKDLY
# RBP4-TTR interaction = RBP4-TTR interaction (Homo sapiens (Human), UniProt P02753); assay: HTRF RBP4-TTR interaction assay; type: biochemical; conditions: 1 μM retinol; read-out: RBP4-TTR HTRF IC50
# Description: HTRF Cryptate labeling kit from CisBio (Cisbio, cat #62EUSPEA, Bedfored, MA) was used to label TTR with Eu^3+ Cryptate. The assay was performed in a final assay volume of 16 μl in the buffer that contained 10 mM Tris-HCl pH 7.5, 1 mM DTT, 0.05% NP-40, 0.05% Prionex, 6% glycerol, and 400 mM KF. […] All of the reactions were performed under dim red light in the dark. The plates were read in the SpectraMax M5e Multimode Plate Reader (Molecular Devices, Sunnyvale, CA) after the overnight incubation at 4° C. […] The HTRF signal was expressed as the ratio of fluorescence intensity: Flu668/Flu620×10,000.
# [3] = Plasma protein binding, mouse plasma; type: in vitro ADME; conditions: CD-1, pH 7.4, read-out: % PPB (converted)
# Description: as §1, §2, §3
# Abca4−/−/Rdh8−/− mice = assay: A2E accumulation in eyes of Abca4−/−/Rdh8−/− mice; type: in vivo, mouse; conditions: 25 mg/kg daily in chow, 10 weeks, eyecups, HPLC
# Text: FIG. 10. Effect of the long-term oral (±)-44 administration on the level of the lipofuscin fluorophore A2E in eyes of the Abca4^−/−/Rdh8^−/− mice. Bisretinoids were extracted from the eyecups of vehicle-treated wild type mice (circles), vehicle-treated Abca4^−/−/Rdh8^−/− knockout mice (squares), and (±)-44-treated Abca4^−/−/Rdh8^−/− mice (triangles) after 10 weeks of dosing and analyzed by HPLC. A significant 77% reduction in A2E concentration was detected in (±)-44-treated Abca4^−/−/Rdh8^−/− mice compared with vehicle-treated double-knockout controls; one-way ANOVA with Holm-Sidak post hoc test, p<0.0001 (****).
# (±)-44 was formulated into a Picolab 5053 chow to ensure a daily dosing of 25 mg/kg of (±)-44. Long-term 10-week dosing of the compound formulated into a chow was conducted in Abca4^−/−/Rdh8^−/− mice. The age-matched control group of wild-type C57BL/6J mice was kept on a standard Picolab 5053 chow. The age-matched reference group of mice was used for defining the basal level of A2E in mice in the absence of the Abca4 and Rdh8 ablation. […] Following the 10 weeks of dosing, the eyecups of treated and untreated Abca4^−/−/Rdh8^−/− mice as well as the eyecups of the reference wild type mice were collected for the quantitative A2E analysis.
structure (smiles),measurement,setting,value
"Cc1cc(C(=O)O)nc(N2CCC(COc3ccccc3C(F)(F)F)C2)n1 (racemic) [Compound (±)-44, (±)-6-Methyl-2-(3-((2-(trifluoromethyl)phenoxy)methyl)pyrrolidin-1-yl)pyrimidine-4-carboxylic Acid]",fraction unbound,[1],0.002
same,IC50,RBP4,0.08 µM
same,IC50,TTR,2.85 µM
same,fraction unbound,[2],0.04
same,IC50,hERG,> 30 µM
same,solubility kinetic,Kinetic solubility assay,187.4 µM
same,IC50,PPARγ,> 100 µM
same,PPARγ agonist activity,PPARγ,devoid of PPARγ agonist activity
same,IC50,RBP4-TTR interaction,0.25 µM
same,fraction unbound,[3],0.04
same,reduction in A2E concentration vs vehicle-treated Abca4−/−/Rdh8−/− mice,Abca4−/−/Rdh8−/− mice,77%
